Like-named read-outs stand apart in the source and are kept apart here.
How the values were obtained:
[1] = system: blood flow in the capillary vessels of various organs of rats; assay: Changes in blood flow in various organs after oral administration of glutamine to rats (microsphere method); format: in vivo, rat; details: for Change in blood flow after administration of amino acid, on the basis of 100% blood flow before administration: male SD rats, 50 mg/kg glutamine into the stomach
Experimental: (a) Glutamine was given to rats and then the changes in blood flow in the capillary vessels of their various organs were determined. (b) Male SD rats having a body weight of about 400 g were subjected to the experiment. (c) The rats were anesthetized by pentobarbital, and catheters were placed in the left ventricle and the right […] of each rat. […] Through the catheter located from the carotid artery to the left ventricle, yellow and red microspheres were each injected before and after the administration of the amino acid solution. […] For the control group, distilled water was administered. (b) Operation: Catheters were inserted into the carotid and femoral arteries of the rats under anesthesia, the microspheres were injected via these catheters, and blood samples were taken. […] After a sufficient interval after the second injection of the microspheres, the rats were euthanized. The muscles, alimentary canals, liver, kidneys, spleen, heart, brain, fat tissue, and abdominal skin were extracted. The microspheres which had collected in each organ were removed and the change in the ratio of the blood flow was calculated from the amounts of microspheres present in each organ.

[2] = system: blood pressure and vascular resistance in humans; details: 78 kg average body weight, cited from earlier work

Row | SMILES | Change in blood flow after administration of amino acid, on the basis of 100% blood flow before administration ([1]; Abdominal skin) [%] | Change in blood flow after administration of amino acid, on the basis of 100% blood flow before administration ([1]; Brain) [%] | Change in blood flow after administration of amino acid, on the basis of 100% blood flow before administration ([1]; Dorsal skin) [%] | Change in blood flow after administration of amino acid, on the basis of 100% blood flow before administration ([1]; Duodenum) [%] | Change in blood flow after administration of amino acid, on the basis of 100% blood flow before administration ([1]; Fat tissues) [%] | Change in blood flow after administration of amino acid, on the basis of 100% blood flow before administration ([1]; Gastrocnemius) [%] | Change in blood flow after administration of amino acid, on the basis of 100% blood flow before administration ([1]; Heart) [%] | Change in blood flow after administration of amino acid, on the basis of 100% blood flow before administration ([1]; Kidney) [%] | Change in blood flow after administration of amino acid, on the basis of 100% blood flow before administration ([1]; Liver) [%] | Change in blood flow after administration of amino acid, on the basis of 100% blood flow before administration ([1]; Soleus) [%] | Change in blood flow after administration of amino acid, on the basis of 100% blood flow before administration ([1]; Spleen) [%] | Blood flow in the capillary vessels (result in words) ([1]; abdominal skin, spleen, liver, heart and brain, rats, 50 mg/kg glutamine) | Effect on blood pressure and vascular resistance ([2]; 6 g arginine intravenously) | Effect on blood pressure and vascular resistance ([2]; 30 g arginine intravenously)
1 | NC(=O)CC[C@H](N)C(=O)O [Glutamine, glutamine] | 146 | 163 | 154 | 136 | 137 | 105 | 259 | 113 | 226 | 146 | 146 | significant increase in blood flow |  | 
2 | N=C(N)NCCC[C@H](N)C(=O)O [arginine] |  |  |  |  |  |  |  |  |  |  |  |  | did not have either effect | lowered blood pressure and vascular resistance

Reference: patent US7829593B2, “Glutamine-containing compositions and a method for increasing blood flow using same” (Ajinomoto Co., Inc., priority 2006, dated 2010)
